Test results taken from patent publication US20200215003A1, “PARENTERAL ADMINISTRATION OF TAPENTADOL” (GRÜNENTHAL GMBH, priority 2011, published 2020).
Where a name gives a salt, the structure may show the parent alone.

How the values were obtained:
[1] = system: CFA induced chronic inflammatory pain in rats; assay: Complete Freund Adjuvant (CFA) induced chronic inflammatory pain (paw pressure test); assay type: in vivo; conditions: for ED50: Rattus norvegicus, ip, 0.25 h, chronic pain, 15 min p. appl.; for time at which the peak effect was reached: p. appl., timepoint of first measurement
Text: (§1) The weight ratios of the components (a) and (b) that will lead to a supra-additive effect (synergistic effect) of the inventive pharmaceutical composition may be determined via the paw pressure test of Randall and Selitto as described in Arch. Int. Pharmacodyn., 1957, 111: 409 to 419, which is a model for inflammatory pain. The respective part of the literature is hereby incorporated by reference and forms part of the present disclosure. Accordingly, the weight ratios of the components (a) and (b) that will lead to a supra-additive effect (synergistic effect) of the inventive pharmaceutical composition were determined in a model of acute pain (A) and a model of chronic pain (B).
Chronic inflammation was induced by an intraplantar injection of 0.05 mL of a CFA solution (Mycobacterium tuberculosis, H37 Ra, Difco Laboratories, Detroit, Mich., U.S.A.; 1 mg/mL in mineral oil) into one hind paw. The mechanical nociceptive threshold is measured before (prevalue) and one day after CFA injection using an Algesiometer (Ugo Basile, Italy). The device generates a mechanical force with a linear increase over time. The force is applied to the dorsal surface of the inflamed rat hind paw via a cone-shaped stylus with a rounded tip (2 mm tip diameter). The nociceptive threshold is defined as the force (in grams) at which the rat vocalises (cut-off force 450 g). The mechanical nociceptive threshold is measured at different timepoints after the drug or vehicle administration. The antinociceptive and antihyperalgesic activity of the tested substance is expressed as percentages of the maximal possible effect (%MPE). The maximal possible effect is defined as the percentage of prevalue withdrawal treshold before CFA-injection. The group size is n=10.
(§2) The analysis of the results with respect to a supra-additive effect of the inventive pharmaceutical composition comprising the components (a) and (b) was carried out via statistical comparison of the theoretical additive ED50-value with the experimentally determined ED50-value of a so-called fixed ratio combination (isobolographic analysis according to Tallarida J T, Porreca F, and Cowan A. Statistical analysis of drug-drug and site-site interactions with isobolograms. Life Sci. 1989; 45: 947-961). The interactions studies presented herein were performed using equieffective doses of the two components, calculated from the ratio of the respective ED50 values of the components if administered alone.

[2] = system: carrageenan induced acute inflammatory pain in rats; assay: carrageenan induced acute inflammatory pain (paw pressure test); assay type: in vivo; conditions: for ED50: Rattus norvegicus, 0.25 h, acute pain, 15 min p. appl.; for time at which the peak effect was reached: p. appl., timepoint of first measurement
Text: as §1
Acute inflammation was induced by injection of a 0.1 ml carrageenan solution (0.5% in distilled water) subcutaneously into the plantar surface of the right hind paw of the rat. The mechanical nociceptive threshold was measured using an Algesiometer (Ugo Basile, Italy). The device generates a mechanical force with a linear increase over time. The force was applied to the dorsal surface of the inflamed hind paw via a cone-shaped stylus with a rounded tip (3 mm^2). The nociceptive threshold (Tv) was defined as the force at which the rat vocalises (cut-off force 450 g). Compounds or vehicle were given 3 h after carrageenan injection. The mechanical nociceptive threshold was measured at different times after the drug or vehicle administration. The drug effects are expressed as percentages of the maximal possible effect (MPE) based on the following formula: %MPE=(Tv drug−Tv control)/(cut-off−Tv control)×100. The group size is n=12.
as §2

[3] = target: recombinantly produced μ-opioid receptor (Homo sapiens, UniProt P35372); conditions: compared with morphine; cited from earlier work
recombinantly produced μ-opioid receptor, sequence (P35372 whole entry): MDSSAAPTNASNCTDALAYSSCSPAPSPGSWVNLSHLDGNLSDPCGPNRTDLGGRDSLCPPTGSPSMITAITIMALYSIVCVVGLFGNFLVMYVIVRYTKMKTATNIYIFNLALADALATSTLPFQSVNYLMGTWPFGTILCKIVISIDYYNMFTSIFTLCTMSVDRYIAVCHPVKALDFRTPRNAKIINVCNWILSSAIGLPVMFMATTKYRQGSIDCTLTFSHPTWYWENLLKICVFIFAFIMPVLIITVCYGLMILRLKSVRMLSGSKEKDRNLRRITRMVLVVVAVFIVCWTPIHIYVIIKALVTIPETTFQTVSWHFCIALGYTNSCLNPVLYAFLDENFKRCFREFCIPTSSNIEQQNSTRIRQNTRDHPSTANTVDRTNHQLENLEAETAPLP

[4] = clinical studies, compared with morphine; cited from earlier work
[5] = system: diabetic hyperalgesia in male C57/BL/6 mice; assay: streptozotocin-induced diabetic heat hyperalgesia, hot plate 50 °C; assay type: in vivo

Row | SMILES | ED50 [1] | time at which the peak effect was reached [1] | ED50 ([2]; ip) | time at which the peak effect was reached [2] | affinity to the recombinantly produced μ-opioid receptor relative to morphine [3] | pain-alleviating action relative to morphine [4] | combined intrathecal and intracerebroventricular ED 50 compared to theoretical additive effects ([5]; FIG. 7, p <0.001) | ED-50 ([5]; combination of intrathecal and intracerebroventricular administration, threshold values after 15 minutes) | ED-50 ([5]; intracerebroventricular administration, thermal hyperalgesia threshold values after 15 minutes) | inhibition of diabetic heat hyperalgesia ([5]; intracerebroventricular, 0.1, 0.3 and 1.00 μg (FIGS. 3 and 4)) | ED-50 ([5]; intrathecal administration, thermal hyperalgesia threshold values after 15 minutes) | inhibition of diabetic heat hyperalgesia ([5]; intrathecal plus intracerebroventricular, simultaneously (FIGS. 5 and 6)) | inhibition of diabetic heat hyperalgesia ([5]; intrathecal, 0.316, 1.00 and 3.16 μg (FIGS. 1 and 2)) | ED50 ([2]; iv)
1 | CCN(CC)CC(=O)Nc1c(C)cccc1C [Lidocaine, lidocaine hydrochloride] | 26.8 mg/kg | 15 min | 32.4 mg/kg | 15 min | – | – | – | – | – | – | – | – | – | –
2 | CC[C@@H](c1cccc(O)c1)[C@@H](C)CN(C)C [tapentadol, (1 R,2R)-3-(3-dimethylamino-1-ethyl-2-methyl-propyl)-phenol] | 6.34 mg/kg | 15 min | – | 15 min | 18 times less | two to three times less | synergistically better | 0.053 (0.032-0.074) mg/animal | 0.18 (0.14-0.22) mg/animal | dose-dependent inhibition | 0.42 (0.26-0.58) mg/animal | dose-dependent inhibition | dose-dependent inhibition | 1.75 mg/kg
